Inhibition data for seven compounds are collected here from ChEMBL document CHEMBL2007661, “Compounds: GSK PKIS; Assays: UNC Frye lab” (2012).

Test [1] deals with T1, Inhibitor of nuclear factor kappa-B kinase subunit beta (Homo sapiens) (UniProt O14920).
T1 sequence (whole entry): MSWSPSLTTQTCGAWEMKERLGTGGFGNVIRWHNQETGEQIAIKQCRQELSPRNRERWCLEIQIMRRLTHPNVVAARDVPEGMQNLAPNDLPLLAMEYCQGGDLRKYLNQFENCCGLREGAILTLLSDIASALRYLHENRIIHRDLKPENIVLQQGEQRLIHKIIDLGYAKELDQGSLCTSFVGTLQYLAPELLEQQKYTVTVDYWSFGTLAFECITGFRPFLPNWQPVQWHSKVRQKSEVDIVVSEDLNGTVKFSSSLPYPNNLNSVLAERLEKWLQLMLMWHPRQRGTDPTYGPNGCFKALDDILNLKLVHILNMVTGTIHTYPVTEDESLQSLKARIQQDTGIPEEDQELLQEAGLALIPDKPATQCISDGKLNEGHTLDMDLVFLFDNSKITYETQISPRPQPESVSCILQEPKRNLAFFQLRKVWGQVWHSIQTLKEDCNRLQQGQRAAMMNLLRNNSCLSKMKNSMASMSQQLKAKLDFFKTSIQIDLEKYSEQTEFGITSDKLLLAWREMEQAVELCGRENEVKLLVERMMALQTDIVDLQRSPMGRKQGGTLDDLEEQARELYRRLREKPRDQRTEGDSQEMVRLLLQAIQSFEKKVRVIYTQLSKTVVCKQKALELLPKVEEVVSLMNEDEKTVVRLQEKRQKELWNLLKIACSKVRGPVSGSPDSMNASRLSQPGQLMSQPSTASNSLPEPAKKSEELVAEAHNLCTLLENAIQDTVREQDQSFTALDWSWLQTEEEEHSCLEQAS
To be noted: at 1 µM.

Test [2] deals with T2, Serine/threonine-protein kinase TBK1 (Homo sapiens) (UniProt Q9UHD2).
T2 sequence (whole entry): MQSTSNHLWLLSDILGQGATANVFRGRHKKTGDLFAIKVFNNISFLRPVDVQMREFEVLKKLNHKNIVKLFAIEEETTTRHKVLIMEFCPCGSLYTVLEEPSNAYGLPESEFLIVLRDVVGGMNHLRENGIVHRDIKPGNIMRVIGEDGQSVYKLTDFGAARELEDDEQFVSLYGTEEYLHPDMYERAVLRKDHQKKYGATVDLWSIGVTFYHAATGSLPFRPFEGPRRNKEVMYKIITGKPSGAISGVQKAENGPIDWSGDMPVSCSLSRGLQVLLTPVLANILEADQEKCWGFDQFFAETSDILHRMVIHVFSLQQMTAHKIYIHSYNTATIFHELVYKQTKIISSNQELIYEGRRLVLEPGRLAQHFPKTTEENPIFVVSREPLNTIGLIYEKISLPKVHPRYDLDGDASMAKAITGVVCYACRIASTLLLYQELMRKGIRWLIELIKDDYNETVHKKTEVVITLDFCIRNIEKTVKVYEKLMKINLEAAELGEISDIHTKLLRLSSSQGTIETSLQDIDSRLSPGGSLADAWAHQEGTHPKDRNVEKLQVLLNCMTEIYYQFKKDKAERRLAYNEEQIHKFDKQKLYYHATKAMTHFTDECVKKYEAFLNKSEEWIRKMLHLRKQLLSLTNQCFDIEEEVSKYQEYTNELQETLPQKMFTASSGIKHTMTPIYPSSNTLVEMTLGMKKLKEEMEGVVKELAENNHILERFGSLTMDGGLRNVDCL
To be noted: at 1 µM.

The target of test [3] is T3, Tyrosine-protein kinase Mer (Homo sapiens) (UniProt Q12866).
T3 sequence (whole entry): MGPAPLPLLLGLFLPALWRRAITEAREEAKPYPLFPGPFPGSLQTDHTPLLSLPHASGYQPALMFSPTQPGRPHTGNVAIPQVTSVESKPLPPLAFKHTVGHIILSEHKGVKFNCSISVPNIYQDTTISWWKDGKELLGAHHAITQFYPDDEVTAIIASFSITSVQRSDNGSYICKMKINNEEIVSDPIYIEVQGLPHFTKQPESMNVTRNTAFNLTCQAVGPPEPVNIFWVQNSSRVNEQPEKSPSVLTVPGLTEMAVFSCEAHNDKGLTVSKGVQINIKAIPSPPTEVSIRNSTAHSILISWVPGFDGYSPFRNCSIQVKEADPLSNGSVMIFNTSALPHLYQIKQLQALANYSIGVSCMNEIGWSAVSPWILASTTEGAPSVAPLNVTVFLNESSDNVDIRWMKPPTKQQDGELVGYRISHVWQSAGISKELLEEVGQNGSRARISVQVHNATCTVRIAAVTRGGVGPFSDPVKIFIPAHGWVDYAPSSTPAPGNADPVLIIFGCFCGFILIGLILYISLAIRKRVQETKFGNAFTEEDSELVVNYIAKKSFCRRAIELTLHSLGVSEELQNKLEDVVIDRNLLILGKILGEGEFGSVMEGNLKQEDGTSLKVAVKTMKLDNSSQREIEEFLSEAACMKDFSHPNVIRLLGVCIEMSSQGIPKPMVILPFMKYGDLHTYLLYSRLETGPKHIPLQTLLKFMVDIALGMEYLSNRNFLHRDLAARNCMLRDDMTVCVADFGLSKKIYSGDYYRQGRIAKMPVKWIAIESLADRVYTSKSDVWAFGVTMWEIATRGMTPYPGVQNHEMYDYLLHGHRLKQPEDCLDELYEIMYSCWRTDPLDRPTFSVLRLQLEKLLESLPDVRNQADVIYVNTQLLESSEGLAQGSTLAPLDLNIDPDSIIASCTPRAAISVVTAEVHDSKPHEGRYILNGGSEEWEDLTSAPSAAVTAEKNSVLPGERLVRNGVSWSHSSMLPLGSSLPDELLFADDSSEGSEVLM
Conditions: at 10 µM.

Test [4] deals with T4, Inhibitor of nuclear factor kappa-B kinase subunit epsilon (Homo sapiens) (UniProt Q14164).
T4 sequence (whole entry): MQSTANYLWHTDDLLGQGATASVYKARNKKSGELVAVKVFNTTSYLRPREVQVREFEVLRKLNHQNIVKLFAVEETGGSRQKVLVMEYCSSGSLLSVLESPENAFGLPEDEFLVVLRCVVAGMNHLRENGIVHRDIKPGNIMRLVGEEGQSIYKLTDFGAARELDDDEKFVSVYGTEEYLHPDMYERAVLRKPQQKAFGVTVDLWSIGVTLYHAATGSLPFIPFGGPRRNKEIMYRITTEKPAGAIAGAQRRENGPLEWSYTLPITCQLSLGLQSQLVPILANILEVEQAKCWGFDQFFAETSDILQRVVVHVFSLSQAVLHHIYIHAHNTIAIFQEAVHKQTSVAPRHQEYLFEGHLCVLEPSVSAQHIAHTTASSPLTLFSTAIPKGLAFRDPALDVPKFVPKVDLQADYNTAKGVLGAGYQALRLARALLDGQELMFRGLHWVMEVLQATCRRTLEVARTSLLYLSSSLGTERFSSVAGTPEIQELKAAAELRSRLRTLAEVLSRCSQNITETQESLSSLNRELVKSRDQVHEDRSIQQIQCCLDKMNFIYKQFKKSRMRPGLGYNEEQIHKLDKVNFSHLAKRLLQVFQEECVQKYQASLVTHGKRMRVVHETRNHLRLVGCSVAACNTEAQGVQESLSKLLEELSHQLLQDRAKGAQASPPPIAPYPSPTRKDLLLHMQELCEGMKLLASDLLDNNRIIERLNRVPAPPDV
Conditions: at 1 µM.

Test [5] has as its target T5, Inhibitor of nuclear factor kappa-B kinase subunit alpha (Homo sapiens) (UniProt O15111).
T5 sequence (whole entry): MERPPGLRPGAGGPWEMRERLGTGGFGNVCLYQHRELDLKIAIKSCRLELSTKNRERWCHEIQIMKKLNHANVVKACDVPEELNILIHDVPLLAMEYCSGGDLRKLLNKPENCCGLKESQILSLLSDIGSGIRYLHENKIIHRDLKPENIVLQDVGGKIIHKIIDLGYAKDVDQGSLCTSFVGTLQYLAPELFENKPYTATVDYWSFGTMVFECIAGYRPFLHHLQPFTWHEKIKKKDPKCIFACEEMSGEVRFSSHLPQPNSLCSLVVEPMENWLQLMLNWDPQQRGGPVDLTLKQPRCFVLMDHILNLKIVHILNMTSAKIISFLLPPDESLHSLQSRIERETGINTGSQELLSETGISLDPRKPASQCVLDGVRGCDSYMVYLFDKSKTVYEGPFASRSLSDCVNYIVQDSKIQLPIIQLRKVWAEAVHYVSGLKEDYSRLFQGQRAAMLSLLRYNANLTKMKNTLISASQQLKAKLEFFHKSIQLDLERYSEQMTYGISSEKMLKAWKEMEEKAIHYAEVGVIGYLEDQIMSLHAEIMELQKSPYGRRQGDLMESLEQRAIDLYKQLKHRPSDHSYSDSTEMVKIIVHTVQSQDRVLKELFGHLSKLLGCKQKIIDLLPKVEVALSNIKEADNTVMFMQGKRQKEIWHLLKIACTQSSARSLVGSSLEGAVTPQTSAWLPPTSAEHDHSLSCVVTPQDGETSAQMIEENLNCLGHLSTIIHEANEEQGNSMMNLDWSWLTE
To be noted: at 1 µM.

“And” between values parts separate entries of the source, which are not always exact repeats. Equal entries are not always repeated.

One may read the inhibition as the drop in the measured response relative to a control, in per cent. With `CCn1c(-c2nonc2N)nc2cnc(Oc3cccc(NC(=O)c4ccc(OCCN5CCOCC5)cc4)c3)cc21`, the inhibition was 3% in test [1]; 12% in test [2]; 10% in test [3]; 45% and 46% in test [4].

On to `NC(=O)c1cc(-c2ccc(F)cc2)cc(-c2ccncc2)c1N`, for which the inhibition in test [1] was 2% and 1%; in test [2], 16% and 21%; in test [3], 22%; in test [4], 2% and 0%.

Consider `CNC(=O)c1cncc(/C=C/c2c(Cl)cccc2Cl)c1`, for which the inhibition is -3% and -2% in test [1]; 0% and -1% in test [2]; 3% in test [3]; 0% and 1% in test [4].

`NC(=O)c1cc(-c2ccncc2)cc(-c2ccccc2)c1N`: the inhibition in test [1] is -1% and 0%; in test [2], 10% and 13%; in test [3], -1%; in test [4] it was 14%.

Regarding `C[C@@H](Oc1cc(-n2cnc3ccc(OC4CCN(C)CC4)cc32)sc1C(N)=O)c1ccccc1Cl`, the inhibition in test [1] was -1% and -2%; in test [2] it was 7% and 3%; in test [3] it was -2%; in test [4], 1% and 5%.

For the compound `Cc1cccc2c1NC(=O)/C2=N\Nc1ccc(S(N)(=O)=O)cc1`, the inhibition is -2% and -1% in test [1]; 3% and 0% in test [2]; 4% in test [3]; 0% and 1% in test [4].

For `CC(C)c1ccc2c(c1)NC(=O)/C2=N/Nc1ccc(S(N)(=O)=O)cc1`, the inhibition in test [5] is 5% and 4%; in test [2] it was -5% and -1%; in test [3], -10%; in test [4], 0%.
